Assay results taken from patent publication US20100204117A1, “CGRP AS A THERAPEUTIC AGENT” (priority 2008, published 2010).
No end group written: not given here.

Legend:
HCMV strain AD169 = test: HCMV plaque formation assay in MRC-5 cells
HIV-1IIIB = test: HIV-1 antiviral assay in CEM-SS cells (MTS readout); assay type: cell-based
[1] = tested on: hepatitis B virus (HBV) ayw strain; test: HBV assay in HepG2-2.2.15 cells (secreted HBV DNA, TaqMan PCR); assay type: cell-based; details: 10 micrograms per ml, six days
HUVEC = test: Endothelial tube formation assay; assay type: cell-based, human; details: 10 micrograms per ml, 20 hours
[2] = tested on: Primary Human endothelial cells (HUVEC); test: Endothelial cell migration assay; assay type: cell-based; details: 10 micrograms per ml, 22 hours
spleen cells = test: Th1/Th2 cytokine profiling assay (Ovalbumin-restimulated spleen cells, CBA kit); assay type: cell-based, Balb/c mice; details: 10 micrograms per ml; Ovalbumin restimulation; 72 hours
Method: The Balb/c mice (originated in 1923, it is a popular strain and is used in many different research disciplines. […] On day 50, spleens of the mice were harvested (3 weeks after last boost with Ovalbumin). […] Thereafter, additional Ovalbumin was added to the cells at 10 micrograms/ml for in vitro restimulation of the cells. 72 hours later, cell supernatants were harvested and assayed using the Becton Dickinson Mouse Th1/Th2 Cytokine CBA Kit. This kit can be used to measure Interleukin-2 (IL-2), Interleukin-4 (IL-4), Interleukin-5 (IL-5), Interferon-γ (IFN-γ), and Tumor Necrosis Factor-α (TNF-α) protein levels in a single sample. The kit performance has been optimized for analysis of physiologically relevant concentrations ([…] levels) of specific cytokine proteins in tissue culture supernatants and serum samples.

Nc1nc(O)c2ncn(COC(CO)CO)c2n1 [Ganciclovir, reference compound]
antiviral activity of positive control compound (HCMV) (HCMV strain AD169; positive control): expected levels of antiviral activity

CC(C)(C)NC(=O)[C@@H]1CN(Cc2cccnc2)CCN1C[C@@H](O)C[C@@H](Cc1ccccc1)C(=O)N[C@H]1c2ccccc2C[C@H]1O [indinavir]
antiviral activity of positive control compounds (HIV-1) (HIV-1IIIB): expected levels of antiviral activity

Cc1cn([C@H]2C[C@H](N=[N+]=[N-])[C@@H](CO)O2)c(=O)[nH]c1=O [AZT]
antiviral activity of positive control compounds (HIV-1) (HIV-1IIIB): expected levels of antiviral activity

Ala-Cys-Asn-Thr-Ala-Thr-Cys-Val-Thr-His-Arg-Leu-Ala-Gly-Leu-Leu-Ser-Arg-Ser-Gly-Gly-Met-Val-Lys-Ser-Asn-Phe-Val-Pro-Thr-Asn-Val-Gly-Ser-Lys-Ala-Phe-NH2 (ACNTATCVTHRLAGLLSRSGGMVKSNFVPTNVGSKAF-NH2; ends and bridges not checked) [peptide 1]
inhibition of HBV replication as compared to the virus control infection [1]: 19.3%
inhibition of the tube formation of human endothelial cells (HUVEC): 12%
inhibition of the migration of human endothelial cells [2]: did not inhibit
IFNγ spleen cells; TH1 response (% of control) (spleen cells): 31.9 % of control
IL-2 spleen cells (% of control) (spleen cells): 104.8 % of control
IL-4 spleen cells; TH2 response (% of control) (spleen cells): 90.3 % of control
IL-5 spleen cells; TH2 response (% of control) (spleen cells): 40.1 % of control
TNF-a spleen cells; TH1 response (% of control) (spleen cells): 84.0 % of control
inhibition of HCMV plaque formation as compared to the virus control experiment (HCMV strain AD169; 10 micrograms per ml, 7-10 days): did not show any inhibition
